Test results: ChEMBL document CHEMBL4425086 (J Nat Prod, 2016)
The source made the active and inactive calls. No cut-off for these calls is given here.

Key:
[1] = molecular target: T1, Transient receptor potential cation channel subfamily A member 1 (Homo sapiens, UniProt O75762); test: Activation of human TRPA1 expressed in HEK293 cells assessed as increase in calcium level at 20 uM by fura2/AM dye based single cell based plate reader analysis
[2] = molecular target: T1, Transient receptor potential cation channel subfamily A member 1; test: Activation of human TRPA1 expressed in HEK293 cells assessed as increase in calcium level by fluo-4 dye based plate reader analysis; type: cell-based
[3] = molecular target: T1, Transient receptor potential cation channel subfamily A member 1; test: Activation of human TRPA1 expressed in HEK293 cells assessed as increase in calcium level at 20 uM in presence of TRPA1 channel blocker A-967079 by fura2/AM dye based single cell based plate reader analysis
HEK293 [4] = test: Increase in calcium level in HEK293 cells at 20 uM by fura2/AM dye based single cell based plate reader analysis; type: functional; details: Homo sapiens
[5] = molecular target: Transient receptor potential cation channel subfamily A member 1 (Mus musculus) (UniProt Q8BLA8); test: Activation of TRPA1 in wild type mouse DRG neurons assessed as increase in calcium level at 10 uM by fura2/AM dye based plate reader analysis relative to control
[6] = molecular target: T1, Transient receptor potential cation channel subfamily A member 1; test: Activation of human TRPA1 expressed in HEK293 cells assessed as induction of current at 10 uM at -70 to +70 mV by whole cell patch clamp assay; type: cell-based
[7] = molecular target: T1, Transient receptor potential cation channel subfamily A member 1; test: Activation of human TRPA1 expressed in HEK293 cells assessed as induction of inward current at 10 uM at -70 to +70 mV by whole cell patch clamp assay; type: cell-based
[8] = molecular target: Transient receptor potential cation channel subfamily A member 1 (Mus musculus) (UniProt Q8BLA8); test: Activation of TRPA1 in wild type mouse DRG neurons assessed as increase in calcium level at 10 uM treated after 10 uM Plumbagin pre-treatment by fura2/AM dye based plate reader analysis relative to control
[9] = molecular target: T1, Transient receptor potential cation channel subfamily A member 1; test: Activation of human TRPA1 expressed in HEK293 cells assessed as induction of outward current at 10 uM at -70 to +70 mV by whole cell patch clamp assay; type: cell-based
DRG neuron = test: Increase in calcium level in DRG neurons isolated from TRPA1 deficient mouse at 10 uM by fura2/AM dye based plate reader analysis; type: functional, cell-based
[10] = molecular target: T1, Transient receptor potential cation channel subfamily A member 1; test: Activation of human TRPA1 expressed in HEK293 cells assessed as induction of outward current at 10 uM at -70 to +70 mV in presence of TRPA1 channel blocker A-967079 by whole cell patch clamp assay; type: cell-based
HEK293 [11] = test: Increase in calcium level in HEK293 cells at 0.1 to 100 uM by fluo-4 dye based plate reader analysis; type: functional, cell-based; details: Homo sapiens
[12] = molecular target: T1, Transient receptor potential cation channel subfamily A member 1; test: Activation of human TRPA1 expressed in HEK293 cells assessed as induction of inward current at 10 uM at -70 to +70 mV in presence of TRPA1 channel blocker A-967079 by whole cell patch clamp assay; type: cell-based
[13] = molecular target: T1, Transient receptor potential cation channel subfamily A member 1; test: Activation of human TRPA1 expressed in HEK293 cells assessed as induction of current at 1 uM at -70 to +70 mV by whole cell patch clamp assay; type: cell-based
[14] = molecular target: T1, Transient receptor potential cation channel subfamily A member 1; test: Activation of human TRPA1 expressed in HEK293 cells assessed as induction of current at 1 to 10 uM at +70 mV in presence of intracellular catalase by whole cell patch clamp assay; type: cell-based
[15] = molecular target: T1, Transient receptor potential cation channel subfamily A member 1; test: Activation of human TRPA1 expressed in HEK293 cells assessed as induction of current at 1 to 10 uM at +70 mV in presence of extracellular catalase by whole cell patch clamp assay; type: cell-based
[16] = Lipophilicity, logP of compound; details: octanol/water
[17] = molecular target: T1, Transient receptor potential cation channel subfamily A member 1; test: Decrease in TRPA1 current amplitude in human TRPA1 expressed HEK293 cells at 10 uM at high voltage by whole cell patch clamp assay; type: cell-based

Transient receptor potential cation channel subfamily A member 1 (Mus musculus), sequence (Q8BLA8 whole entry): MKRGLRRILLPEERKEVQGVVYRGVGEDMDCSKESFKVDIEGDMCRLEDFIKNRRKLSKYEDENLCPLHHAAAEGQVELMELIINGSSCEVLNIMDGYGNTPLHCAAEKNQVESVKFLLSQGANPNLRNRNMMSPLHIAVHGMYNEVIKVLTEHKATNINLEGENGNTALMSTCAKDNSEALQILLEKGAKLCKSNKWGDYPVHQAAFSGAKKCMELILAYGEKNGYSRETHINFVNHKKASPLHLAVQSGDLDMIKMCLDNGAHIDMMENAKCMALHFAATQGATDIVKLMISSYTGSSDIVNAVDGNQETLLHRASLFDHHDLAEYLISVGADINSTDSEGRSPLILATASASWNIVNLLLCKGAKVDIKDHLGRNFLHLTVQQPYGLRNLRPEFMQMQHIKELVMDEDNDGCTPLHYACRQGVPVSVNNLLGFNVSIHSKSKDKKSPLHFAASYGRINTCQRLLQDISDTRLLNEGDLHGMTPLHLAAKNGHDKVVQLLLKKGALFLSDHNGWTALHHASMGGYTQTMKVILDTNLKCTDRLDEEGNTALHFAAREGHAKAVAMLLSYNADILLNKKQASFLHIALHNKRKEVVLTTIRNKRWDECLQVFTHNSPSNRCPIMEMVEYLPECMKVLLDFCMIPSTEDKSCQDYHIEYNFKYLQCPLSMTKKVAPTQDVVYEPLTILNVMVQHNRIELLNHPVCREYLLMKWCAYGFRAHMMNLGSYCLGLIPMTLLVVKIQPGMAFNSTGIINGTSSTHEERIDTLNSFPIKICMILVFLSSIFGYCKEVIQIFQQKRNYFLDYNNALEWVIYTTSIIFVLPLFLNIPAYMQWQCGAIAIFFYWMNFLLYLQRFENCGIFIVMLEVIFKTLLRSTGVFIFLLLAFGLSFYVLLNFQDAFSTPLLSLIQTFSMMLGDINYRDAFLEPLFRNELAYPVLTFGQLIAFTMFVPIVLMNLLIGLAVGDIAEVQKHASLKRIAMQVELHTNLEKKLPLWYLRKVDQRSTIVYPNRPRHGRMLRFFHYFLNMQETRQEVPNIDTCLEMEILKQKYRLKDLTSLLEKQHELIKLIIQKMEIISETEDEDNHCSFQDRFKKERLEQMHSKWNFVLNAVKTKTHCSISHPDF
T1 sequence (O75762 whole entry): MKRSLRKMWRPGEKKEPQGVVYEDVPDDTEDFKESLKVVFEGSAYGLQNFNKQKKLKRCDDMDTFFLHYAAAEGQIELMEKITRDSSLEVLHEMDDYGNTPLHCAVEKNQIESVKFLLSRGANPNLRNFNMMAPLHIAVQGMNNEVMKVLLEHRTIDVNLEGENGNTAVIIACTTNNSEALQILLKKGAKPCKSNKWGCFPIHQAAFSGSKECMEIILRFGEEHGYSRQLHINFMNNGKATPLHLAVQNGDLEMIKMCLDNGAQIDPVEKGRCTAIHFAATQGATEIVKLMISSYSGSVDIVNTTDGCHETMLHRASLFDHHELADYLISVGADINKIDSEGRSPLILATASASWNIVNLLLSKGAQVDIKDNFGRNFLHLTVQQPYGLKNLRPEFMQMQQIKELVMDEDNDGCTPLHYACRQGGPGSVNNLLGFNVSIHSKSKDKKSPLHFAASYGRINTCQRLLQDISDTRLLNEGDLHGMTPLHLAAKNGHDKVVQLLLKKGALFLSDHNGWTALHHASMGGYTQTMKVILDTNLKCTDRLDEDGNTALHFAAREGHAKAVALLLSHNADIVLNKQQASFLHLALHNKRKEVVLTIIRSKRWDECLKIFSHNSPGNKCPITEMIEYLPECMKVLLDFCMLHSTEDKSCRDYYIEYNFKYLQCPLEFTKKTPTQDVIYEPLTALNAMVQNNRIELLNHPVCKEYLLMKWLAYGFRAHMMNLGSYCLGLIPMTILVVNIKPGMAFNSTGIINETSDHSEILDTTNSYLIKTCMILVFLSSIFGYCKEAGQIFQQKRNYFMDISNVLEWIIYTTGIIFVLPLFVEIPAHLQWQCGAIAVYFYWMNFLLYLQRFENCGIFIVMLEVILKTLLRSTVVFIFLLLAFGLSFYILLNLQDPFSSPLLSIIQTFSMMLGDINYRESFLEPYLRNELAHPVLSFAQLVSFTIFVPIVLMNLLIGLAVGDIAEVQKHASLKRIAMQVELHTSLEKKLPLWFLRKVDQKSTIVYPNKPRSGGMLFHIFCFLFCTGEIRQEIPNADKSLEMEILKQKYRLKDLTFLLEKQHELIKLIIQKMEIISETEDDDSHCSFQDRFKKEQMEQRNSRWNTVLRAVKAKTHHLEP

| SMILES | Activity [1] | EC50 [2] [nM] | Activity [3] | Activity (HEK293 [4]) | further results |
| --- | --- | --- | --- | --- | --- |
| O=C1C=C(O)C(=O)c2ccccc21 | Active |  |  |  |  |
| COc1cc(/C=C/C=O)ccc1OCC=C(C)C [BOROPINAL] | Active | 9800 | inactive | inactive | Activity [5]: inactive; Activity [6]: inactive |
| COc1cc(/C=C/C(=O)O)ccc1OC/C=C(\C)CCC=C(C)C | Active |  |  |  |  |
| CC(C)=CCC/C(C)=C/COc1ccc2ccc(=O)oc2c1 | Active |  |  |  |  |
| COc1cc(/C=C/C=O)ccc1OC/C=C(\C)CCC=C(C)C | Active |  | inactive | inactive |  |
| C=CCN=C=S | Active |  |  |  | Activity [7]: Active; Activity [8]: inactive; Activity [9]: Active; Activity (DRG neuron): inactive |
| O=C1C=CC(=O)c2c(O)cccc21 [JUGLONE] | Active | 1700 | inactive | inactive | Activity [10]: inactive; Activity [7]: Active; Activity (HEK293 [11]): inactive; Activity [9]: Active; Activity [12]: inactive |
| CC1=CC(=O)c2c(O)cccc2C1=O [PLUMBAGIN] | Active | 460 | inactive | inactive | Activity [13]: inactive; Activity [14]: 93.5 pA/pF; Activity [15]: 65 pA/pF; Activity [5]: 50%; logP [16]: 3.69; Activity [17]: Active; Activity (DRG neuron): inactive |
